Source: paper PMC10831936 (iScience, 2024)
Entries after “also recorded” stand apart in the source; their conditions may differ.

Assays:
ERBB2/3 EGR1p = experiment: ERBBprofiler barcoded EGR1p pathway sensor, ERBB2/3 co-transfected; conditions: Rattus norvegicus, PC-12, 6 h, read-out: ERBB2/3 EGR1p IC50
EGR1p (ERBB4) = experiment: EGR1p pathway sensor luciferase assay, ERBB4 transfected; format: cell-based, Rattus norvegicus; conditions: Rattus norvegicus, PC-12; PC12 cells; constant EGF-like domain 10 ng/mL; luciferase readout; read-out: ERBB4 downstream MAPK signaling IC50, EGR1p sensor luciferase
Method: (§1) 50,000 PC12 cells were seeded per 96-well onto poly-L-lysin (PLL)-coated plates and transfected the following day (day in vitro 1, DIV1) with assay plasmids using Lipofectamine 3000 (Thermo Fisher Scientific). For split TEV assays, plasmids (pcDNA3 or pTag4C backbone) encoding receptor-NTEV-tcs-GV, GRB2-SH2-CTEV (for ERBB receptors) or ARBB2-1-383-CTEV (for HTR2A) (all 10 ng/well), and the p10xUAS-luc2 reporter plasmid (10 ng/well) were used. For pathway assays, the receptor plasmids (15 ng/well) and pathway reporter plasmids (15 ng/well) pEGR1p-luc2 for monitoring MAPK signaling, pCRE-CMVmin-luc2 for monitoring cAMP/Ca^2+ signaling, or p6xNFAT-CMVmin-luc2 for Ca^2+ signaling were used. Transient transfections were conducted according to the manufacturer’s instructions. On DIV2, cells were starved in medium containing 1% FCS for 16 h. […] In the case of antagonist assays, compounds were added at increasing doses together with the stimulus. Cells were lysed in 1x passive lysis buffer (Promega) and subjected to a firefly luciferase assay using a self-made substrate for firefly luciferase.[100] Luciferase activity was analyzed in a Mithras LB 940 Multimode Microplate Reader (Berthold Technologies). All assays were run in 96-well plates using six replicates per condition.

ERBB4 EGR1p = experiment: ERBBprofiler barcoded EGR1p pathway sensor, ERBB4 co-transfected; conditions: Rattus norvegicus, PC-12, 6 h, read-out: ERBB4 EGR1p IC50
EGFR EGR1p = experiment: ERBBprofiler barcoded EGR1p pathway sensor, EGFR co-transfected; conditions: Rattus norvegicus, PC-12, 6 h, read-out: EGFR EGR1p IC50
[1] = test system: EGR1p (MAPK signaling), EGFR; experiment: EGR1p pathway sensor luciferase assay, EGFR; format: cell-based, Rattus norvegicus; conditions: Rattus norvegicus, PC-12; read-out: EGFR downstream MAPK signaling IC50, EGR1p sensor luciferase
Method: as §1

[2] = test system: ERBB receptors, HTR2A, and downstream signaling pathways; experiment: ERBBprofiler multiplexed barcoded assay, overall statements across all receptor batches and sensors; conditions: 10 μM compound; PC12 cells; stimulation mix
phospho-ERK1/2 [3] = experiment: Western blot of p-ERK1/2 in T-47D cells (EGFld stimulated); format: cell-based; conditions: Homo sapiens, T47D, compound 1 h, EGFld 10 ng/mL 5 min, read-out: p-ERK1/2 IC50 (ERBB4), Western blot quantification
Method: (§2) Phosphorylation levels of EGFR were assessed[37] in A549 cells, while phosphorylation levels of ERBB4 were assessed in T-47D cells. Before stimulation experiments were performed, both cell types were starved overnight in 1% FCS and compounds were incubated for 1 h. […] For lysis, cells were washed 1x with PBS and lysed in a Triton X- lysis buffer (1% Triton X-100, 50 mM Tris pH7.5, 150 mM NaCl, 1 mM EGTA) containing the Complete protease inhibitor cocktail (Roche) and PhosSTOP phosphatase inhibitor (Roche). Briefly, cells were lysed and kept on ice for 10 min, sonicated 3x for 10 s at 4°C, and denatured for 10 min at 70°C. The Mini-PROTEAN Tetra Electrophoresis System and Trans-Blot Turbo Botting System (both Bio-Rad) were used for running and blotting protein gels. […] Total EGFR and ERBB4 protein levels were determined using an anti-EGFR antibody (RRID: AB_10920395) (clone A-10, dilution 1:1000, sc-373746, Santa Cruz Biotechnology) and an anti-ERBB4 antibody (RRID: AB_731579) (clone E200, dilution 1:1000, ab32375, Abcam). […] Tubulin levels were determined using an anti-Tubulin antibody (RRID: AB_477579) (dilution 1:2000, No. T 5168, Sigma-Aldrich). For quantification, phosphorylation levels of p-EGFR relative to EGFR as well as p-ERBB4 relative to ERBB4 were calculated using the Lukemiller protocol (http://lukemiller.org/index.php/2010/11/analyzing-gels-and-western-blots-with-image-j/). […]

phospho-ERK1/2 [4] = experiment: Western blot of p-ERK1/2 in A549 cells (EGF stimulated); format: cell-based; conditions: Homo sapiens, read-out: p-ERK1/2 IC50 (EGFR), Western blot quantification
Method: as §2

ERBB4 [5] = molecular target: T1, ERBB4 (Homo sapiens, UniProt Q15303); experiment: Split TEV firefly luciferase assay, ERBB4; format: cell-based; conditions: PC12 cells; constant EGF-like domain 10 ng/mL; luciferase readout
Method: as §1

ERBB4 [6] = molecular target: T1, ERBB4; experiment: ERBBprofiler barcoded split TEV assay, ERBB4; conditions: ERBB4 UAS (split TEV) IC50, PC12 cells; constant EGF 30 ng/mL, EGFld 10 ng/mL, serotonin 1 μM; 6 h; barcode readout; relative IC50
HTR2A = HTR2A (Homo sapiens, UniProt P28223); experiment: ERBBprofiler barcoded split TEV assay, HTR2A
HTR2A EGR1p = experiment: ERBBprofiler barcoded EGR1p pathway sensor, HTR2A co-transfected; conditions: Rattus norvegicus, PC-12, 6 h, read-out: HTR2A EGR1p IC50
ERBB2/3 = ERBB2/3 (Homo sapiens, UniProt P04626+P21860); experiment: ERBBprofiler barcoded split TEV assay, ERBB2/3
cAMP = experiment: GloSensor cAMP assay in PC12 cells; format: cell-based, Rattus norvegicus

T1 sequence (Q15303 26-1308): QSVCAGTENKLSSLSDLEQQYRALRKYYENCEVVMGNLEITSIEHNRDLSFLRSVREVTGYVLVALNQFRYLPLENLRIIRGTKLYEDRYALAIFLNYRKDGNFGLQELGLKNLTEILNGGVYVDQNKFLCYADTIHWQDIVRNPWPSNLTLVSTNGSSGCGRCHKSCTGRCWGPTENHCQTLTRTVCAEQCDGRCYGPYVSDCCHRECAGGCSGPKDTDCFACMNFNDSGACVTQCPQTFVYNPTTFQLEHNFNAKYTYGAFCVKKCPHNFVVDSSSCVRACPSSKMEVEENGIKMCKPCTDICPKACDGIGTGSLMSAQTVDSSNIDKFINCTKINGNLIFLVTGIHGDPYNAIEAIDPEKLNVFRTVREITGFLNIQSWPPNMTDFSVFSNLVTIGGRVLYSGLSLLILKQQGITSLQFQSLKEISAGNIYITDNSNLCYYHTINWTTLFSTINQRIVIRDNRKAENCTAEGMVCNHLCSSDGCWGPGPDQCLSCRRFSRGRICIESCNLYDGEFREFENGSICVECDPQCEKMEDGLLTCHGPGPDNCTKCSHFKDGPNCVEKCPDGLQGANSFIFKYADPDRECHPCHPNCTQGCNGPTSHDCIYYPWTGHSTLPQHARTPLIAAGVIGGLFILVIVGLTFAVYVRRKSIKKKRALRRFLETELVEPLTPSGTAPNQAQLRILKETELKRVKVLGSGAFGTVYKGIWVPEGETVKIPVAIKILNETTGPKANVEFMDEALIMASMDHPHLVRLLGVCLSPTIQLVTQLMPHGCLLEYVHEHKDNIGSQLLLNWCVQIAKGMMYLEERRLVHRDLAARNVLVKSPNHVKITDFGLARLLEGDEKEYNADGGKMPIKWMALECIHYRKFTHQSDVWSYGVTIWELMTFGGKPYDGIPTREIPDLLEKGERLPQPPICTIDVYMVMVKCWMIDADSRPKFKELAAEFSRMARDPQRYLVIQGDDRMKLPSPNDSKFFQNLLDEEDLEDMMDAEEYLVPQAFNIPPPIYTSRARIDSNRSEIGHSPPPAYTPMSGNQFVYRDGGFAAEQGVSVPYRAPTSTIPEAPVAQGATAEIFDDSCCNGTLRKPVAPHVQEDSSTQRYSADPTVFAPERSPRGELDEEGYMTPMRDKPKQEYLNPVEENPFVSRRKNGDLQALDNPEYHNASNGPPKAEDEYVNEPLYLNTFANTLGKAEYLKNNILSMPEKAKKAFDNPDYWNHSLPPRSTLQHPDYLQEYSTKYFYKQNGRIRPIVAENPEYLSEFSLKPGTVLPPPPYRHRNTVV
HTR2A, sequence (P28223 whole entry): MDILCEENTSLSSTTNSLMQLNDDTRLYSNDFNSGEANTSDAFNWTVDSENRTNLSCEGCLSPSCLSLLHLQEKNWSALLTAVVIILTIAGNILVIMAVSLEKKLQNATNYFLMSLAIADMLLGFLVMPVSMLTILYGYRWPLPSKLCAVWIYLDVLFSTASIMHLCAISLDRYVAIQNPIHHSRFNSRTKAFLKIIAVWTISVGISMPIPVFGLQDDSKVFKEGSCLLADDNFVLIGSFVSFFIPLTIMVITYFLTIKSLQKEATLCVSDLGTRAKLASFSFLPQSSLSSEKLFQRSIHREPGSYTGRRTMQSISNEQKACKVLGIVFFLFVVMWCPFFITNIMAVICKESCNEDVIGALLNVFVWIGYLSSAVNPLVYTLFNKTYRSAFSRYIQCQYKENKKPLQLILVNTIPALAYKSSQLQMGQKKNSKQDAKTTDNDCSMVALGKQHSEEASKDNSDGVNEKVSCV
ERBB2/3, sequence (P04626 23-1255): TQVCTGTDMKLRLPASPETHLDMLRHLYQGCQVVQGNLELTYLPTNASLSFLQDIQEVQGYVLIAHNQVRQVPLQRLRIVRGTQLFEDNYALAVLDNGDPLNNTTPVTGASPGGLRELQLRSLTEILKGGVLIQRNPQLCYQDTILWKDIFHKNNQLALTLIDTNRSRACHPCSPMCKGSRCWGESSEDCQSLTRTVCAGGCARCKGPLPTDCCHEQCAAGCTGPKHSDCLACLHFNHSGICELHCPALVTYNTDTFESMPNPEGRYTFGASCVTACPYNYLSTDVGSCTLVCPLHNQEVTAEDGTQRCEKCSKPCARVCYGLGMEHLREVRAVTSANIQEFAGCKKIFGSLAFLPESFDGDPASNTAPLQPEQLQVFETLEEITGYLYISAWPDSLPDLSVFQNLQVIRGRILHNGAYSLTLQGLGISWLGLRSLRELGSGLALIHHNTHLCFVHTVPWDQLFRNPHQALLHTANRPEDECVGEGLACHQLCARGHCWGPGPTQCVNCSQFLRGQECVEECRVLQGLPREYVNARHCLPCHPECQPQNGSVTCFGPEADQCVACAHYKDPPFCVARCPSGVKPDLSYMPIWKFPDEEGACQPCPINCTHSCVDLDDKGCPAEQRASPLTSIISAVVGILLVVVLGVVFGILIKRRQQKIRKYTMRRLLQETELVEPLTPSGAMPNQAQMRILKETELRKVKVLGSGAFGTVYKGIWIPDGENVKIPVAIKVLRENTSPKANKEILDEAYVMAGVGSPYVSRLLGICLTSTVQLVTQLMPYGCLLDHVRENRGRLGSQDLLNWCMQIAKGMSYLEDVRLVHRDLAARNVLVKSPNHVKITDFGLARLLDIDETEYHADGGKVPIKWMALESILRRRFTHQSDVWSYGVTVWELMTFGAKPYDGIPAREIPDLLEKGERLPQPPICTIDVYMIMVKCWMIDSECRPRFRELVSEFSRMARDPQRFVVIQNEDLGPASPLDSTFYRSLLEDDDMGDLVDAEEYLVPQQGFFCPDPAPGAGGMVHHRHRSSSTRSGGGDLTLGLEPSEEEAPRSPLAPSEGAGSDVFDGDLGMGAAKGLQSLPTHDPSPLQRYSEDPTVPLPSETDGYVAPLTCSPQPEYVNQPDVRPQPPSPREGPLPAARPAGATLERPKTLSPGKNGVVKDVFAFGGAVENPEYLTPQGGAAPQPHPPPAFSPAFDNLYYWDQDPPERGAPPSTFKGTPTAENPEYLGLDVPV
ERBB2/3, sequence (P21860 20-1342): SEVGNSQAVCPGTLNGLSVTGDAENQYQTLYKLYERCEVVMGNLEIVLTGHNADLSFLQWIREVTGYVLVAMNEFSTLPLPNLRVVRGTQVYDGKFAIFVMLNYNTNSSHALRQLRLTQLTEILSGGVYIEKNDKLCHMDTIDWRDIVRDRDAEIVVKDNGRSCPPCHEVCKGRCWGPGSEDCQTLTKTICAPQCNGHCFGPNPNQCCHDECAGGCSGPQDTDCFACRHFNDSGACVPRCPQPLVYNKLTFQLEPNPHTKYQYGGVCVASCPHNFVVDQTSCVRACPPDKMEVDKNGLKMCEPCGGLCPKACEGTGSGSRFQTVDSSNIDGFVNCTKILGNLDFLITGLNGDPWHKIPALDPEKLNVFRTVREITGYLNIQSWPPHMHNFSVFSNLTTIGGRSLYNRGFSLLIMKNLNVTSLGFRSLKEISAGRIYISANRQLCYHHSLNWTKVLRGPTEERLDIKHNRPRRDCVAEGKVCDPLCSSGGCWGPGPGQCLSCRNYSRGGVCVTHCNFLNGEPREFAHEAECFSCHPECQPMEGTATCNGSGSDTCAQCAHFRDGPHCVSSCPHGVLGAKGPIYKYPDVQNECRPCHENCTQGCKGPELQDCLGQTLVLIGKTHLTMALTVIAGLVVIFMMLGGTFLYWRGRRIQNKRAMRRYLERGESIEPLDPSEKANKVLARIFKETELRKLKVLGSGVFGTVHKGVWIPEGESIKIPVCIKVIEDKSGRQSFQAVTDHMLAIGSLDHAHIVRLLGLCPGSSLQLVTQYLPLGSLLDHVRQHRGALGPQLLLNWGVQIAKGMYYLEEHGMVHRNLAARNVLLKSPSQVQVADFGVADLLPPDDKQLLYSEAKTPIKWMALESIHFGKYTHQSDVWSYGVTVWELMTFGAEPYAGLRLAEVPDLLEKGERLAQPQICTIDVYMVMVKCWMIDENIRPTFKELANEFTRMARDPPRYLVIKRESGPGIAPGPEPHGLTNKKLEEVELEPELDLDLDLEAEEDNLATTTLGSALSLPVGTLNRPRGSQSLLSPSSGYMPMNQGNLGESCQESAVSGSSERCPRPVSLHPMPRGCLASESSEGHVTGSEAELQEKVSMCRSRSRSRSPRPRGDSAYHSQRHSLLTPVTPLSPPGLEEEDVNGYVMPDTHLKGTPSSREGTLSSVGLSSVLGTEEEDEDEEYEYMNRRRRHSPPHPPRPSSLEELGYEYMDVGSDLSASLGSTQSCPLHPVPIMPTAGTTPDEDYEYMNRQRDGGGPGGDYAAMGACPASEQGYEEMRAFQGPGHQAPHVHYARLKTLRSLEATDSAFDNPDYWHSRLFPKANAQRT

IC50 (ERBB2/3 EGR1p) | IC50 (EGR1p (ERBB4)) | IC50 (ERBB4 EGR1p) | IC50 (EGFR EGR1p) | IC50 [1] | IC50 (phospho-ERK1/2 [3]) | IC50 (phospho-ERK1/2 [4]) | IC50 (ERBB4 [5]) | IC50 (ERBB4 [6]) | IC50 (HTR2A) | IC50 (HTR2A EGR1p) | IC50 (ERBB2/3) | EC50 (cAMP; Rattus norvegicus, PC-12, 0.25 h, constant stimulation mix, 15 min, cAMP increase) | SMILES | CRE sensor response at high compound concentration (barcoded) [2] | compound concentration resulting in elevated cAMP (GloSensor) (cAMP; stimulation mix) | effect on cAMP levels (GloSensor) (cAMP)
120 nM | 284 nM | 113 nM | 261 nM | 450 nM | 4990 nM | 6540 nM | 324 nM | 117 nM | 184 nM | 160 nM | 92 nM | 1920 nM | CCOc1cc2ncc(C#N)c(Nc3ccc(OCc4ccccn4)c(Cl)c3)c2cc1NC(=O)/C=C/[C@H]1CCCN1C [Pyrotinib] | upregulation of the CRE sensor; also recorded: upregulated CRE sensor response | ≥ 3 µM | –
30 nM | 378 nM | 47 nM | 23 nM | 94 nM | 147 nM | 91 nM | 258 nM | 654 nM | 17 nM | 32 nM | 202 nM | – | COc1cc2ncnc(Nc3cccc(Cl)c3)c2cc1OC [AG1478, AG-1478 (Tyrphostin AG-1478)] | did not cause any increased CRE sensor activities | – | did not cause any increase
